Laboratory results taken from publication PMC12802350, “Opposite effects of spermidine and GC7 in cell culture are dictated by distinct molecular targets” (Biochemical Journal, 2025).

Tests used:
[1] = biological target: T1, bovine serum amine oxidase (BSAO) (Bos taurus, UniProt Q29437); test: spectrophotometric benzaldehyde formation at […] nm; type: biochemical; set-up: BSAO purified from bovine blood; also decomplemented FBS
T1 sequence (Q29437 17-762): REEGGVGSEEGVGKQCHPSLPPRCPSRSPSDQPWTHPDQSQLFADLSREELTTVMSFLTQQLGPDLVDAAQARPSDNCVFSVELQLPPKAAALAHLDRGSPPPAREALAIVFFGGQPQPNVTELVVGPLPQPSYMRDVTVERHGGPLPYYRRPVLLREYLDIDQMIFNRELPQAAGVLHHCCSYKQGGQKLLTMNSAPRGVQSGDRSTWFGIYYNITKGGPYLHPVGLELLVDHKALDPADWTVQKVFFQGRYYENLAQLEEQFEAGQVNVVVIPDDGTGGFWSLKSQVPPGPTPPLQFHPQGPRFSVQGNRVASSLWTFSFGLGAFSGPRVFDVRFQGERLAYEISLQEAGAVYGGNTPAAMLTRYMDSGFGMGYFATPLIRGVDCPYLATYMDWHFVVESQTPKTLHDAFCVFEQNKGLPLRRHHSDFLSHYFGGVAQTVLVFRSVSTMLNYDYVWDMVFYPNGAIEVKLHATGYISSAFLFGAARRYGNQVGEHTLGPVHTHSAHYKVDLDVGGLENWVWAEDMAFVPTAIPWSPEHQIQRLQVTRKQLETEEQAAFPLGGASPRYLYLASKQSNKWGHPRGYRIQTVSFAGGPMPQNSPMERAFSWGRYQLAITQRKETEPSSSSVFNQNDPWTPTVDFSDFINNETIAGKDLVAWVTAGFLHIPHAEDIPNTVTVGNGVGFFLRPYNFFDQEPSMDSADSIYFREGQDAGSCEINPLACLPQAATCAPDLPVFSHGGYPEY

[2] = biological target: T1, bovine serum amine oxidase (BSAO); test: DCHBS/AAP peroxide-coupled kinetic assay with spermidine as substrate, Morrison tight-binding fit; type: biochemical; set-up: BSAO purified from bovine blood

NCc1ccccc1 [benzylamine]
spectrophotometric benzaldehyde formation at 250 nm [1]: BSAO and decomplemented FBS activities were determined spectrophotometrically as the amount of benzaldehyde formed per min (μmol/min) from benzylamine

N=C(N)NCCCCCCCN [GC7]
Ki [2]: 308 nM
